Data reported in patent US6812212B2, “Assessment of oxidant stress in vitro and in vivo” (priority 2000, dated 2004).

Columns and labels:
cytochrome c [1] = test: Nitration and polymerization of cytochrome c by NO donor during prostaglandin H2 synthase form 2 metabolism of arachidonic acid; format: biochemical; settings: 300 μM DETA NONOate with ovine PGHS-2 and arachidonic acid (590 μM), 37° C., 30 minutes
Experimental: Western blot analysis was carried out with monoclonal antibodies produced against nitrotyrosine using the alkaline phosphatase system;
Reaction mixture in 100 mM phosphate buffer, pH 7.4, (total volume, 200 μl) was incubated at 37° C. for 30 minutes. The reaction mixture contained a combination of cytochrome c (40 μg), ovine prostaglandin H2 synthase form 2 (104 units), arachidonic acid (590 μM), epinephrine (31 μg), hematin (1 μM), and DETA NONOate, an NO donor, (300 μM) as indicated in FIG. 2. After incubation, the proteins were separated by SDS-PAGE followed by Western blot analysis with an alkaline phosphatase system using monoclonal antibodies produced against nitrotyrosine.

[2] = biological target: T1, prostaglandin H2 synthase form 2 (Ovis aries, UniProt P79208); test: Peroxynitrite-induced nitration of prostaglandin H2 synthase form 2, Western blot with anti-nitrotyrosine antibodies; format: biochemical, sheep; settings: for nitration of tyrosine residues of prostaglandin H2 synthase form 2 in the presence of reducing agent: 16 μg sheep PGHS-2, 450 μM peroxynitrite, 31 μM GSH
T1 construct: Prostaglandin H2 synthase form 2, isolated from sheep placenta, contained nitrated tyrosine residues; purchased Cayman Co. (Ann Arbor, Mich.); host or cells: sheep placenta (tissue-purified)
T1 sequence (P79208 17-603): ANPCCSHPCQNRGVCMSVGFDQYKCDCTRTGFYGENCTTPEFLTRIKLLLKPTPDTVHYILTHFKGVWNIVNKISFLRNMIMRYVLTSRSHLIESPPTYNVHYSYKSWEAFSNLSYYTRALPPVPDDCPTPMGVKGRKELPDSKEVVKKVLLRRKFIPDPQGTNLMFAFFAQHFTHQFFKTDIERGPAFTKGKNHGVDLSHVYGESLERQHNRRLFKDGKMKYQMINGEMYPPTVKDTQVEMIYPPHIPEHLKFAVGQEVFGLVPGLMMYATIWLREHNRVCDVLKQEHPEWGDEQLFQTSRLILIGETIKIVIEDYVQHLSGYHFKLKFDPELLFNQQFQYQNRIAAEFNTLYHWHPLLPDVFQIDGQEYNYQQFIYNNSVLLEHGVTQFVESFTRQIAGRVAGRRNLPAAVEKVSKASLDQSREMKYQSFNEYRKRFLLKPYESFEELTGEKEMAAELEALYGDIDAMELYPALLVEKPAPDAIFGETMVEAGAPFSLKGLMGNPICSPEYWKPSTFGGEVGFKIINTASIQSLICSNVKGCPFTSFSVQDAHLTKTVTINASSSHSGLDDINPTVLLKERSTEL
Experimental: (§1) SDS-PAGE was carried out on 10% or 15% gels, according to Laemmli (18), with or without the addition of β-mercaptoethanol in gel loading buffer before heat denaturization of proteins. The separated proteins were electroblotted onto a […] membrane and Western blot analyses were carried out using alkaline phosphatase system as previously described (19,20). Visualization of bands was accomplished by incubation with a mixture of 5-bromo-4-chloro-3-indolylphosphatate p-toluidine and nitrobluetetrazolium. Western blot analyses were also carried out using horseradish peroxidase or alkaline phosphatase system with […] substrates.

[3] = biological target: T1, prostaglandin H2 synthase form 2; test: Peroxynitrite-induced dimerization of prostaglandin H2 synthase form 2, SDS-PAGE without β-mercaptoethanol and Western blot; format: biochemical, sheep; settings: 450 μM peroxynitrite
Experimental: as §1

[4] = biological target: T2, prostaglandin H2 synthase form 1 (Ovis aries, UniProt P05979); test: Prostaglandin H2 synthase activity analysis by TLC ([14C]arachidonic acid conversion); format: biochemical, sheep; settings: pretreated at 37° C. for 30 minutes; 25 μM [14C]arachidonic acid
T2 construct: sheep prostaglandin H2 synthases form 1 and 2 obtained from ram seminal vesicle and placenta, respectively; purchased Cayman Co. (Ann Arbor, Mich.); host or cells: ram seminal vesicle (tissue-purified)
T2 sequence (P05979 25-600): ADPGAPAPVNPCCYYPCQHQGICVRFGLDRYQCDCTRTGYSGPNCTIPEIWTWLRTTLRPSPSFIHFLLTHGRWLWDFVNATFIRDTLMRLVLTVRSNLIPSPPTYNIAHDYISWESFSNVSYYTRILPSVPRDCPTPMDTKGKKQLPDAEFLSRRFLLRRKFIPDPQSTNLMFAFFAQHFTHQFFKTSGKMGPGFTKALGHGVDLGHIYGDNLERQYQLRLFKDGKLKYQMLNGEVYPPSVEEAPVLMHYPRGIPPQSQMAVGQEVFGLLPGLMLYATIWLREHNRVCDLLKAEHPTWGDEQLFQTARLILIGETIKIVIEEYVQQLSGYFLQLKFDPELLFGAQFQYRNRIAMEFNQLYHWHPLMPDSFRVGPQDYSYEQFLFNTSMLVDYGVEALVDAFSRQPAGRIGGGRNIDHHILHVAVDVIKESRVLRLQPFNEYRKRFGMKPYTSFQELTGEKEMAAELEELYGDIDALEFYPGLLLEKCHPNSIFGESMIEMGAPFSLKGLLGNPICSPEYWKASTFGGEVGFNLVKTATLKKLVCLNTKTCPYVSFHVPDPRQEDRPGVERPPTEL
Experimental: (§2) Prostaglandin H2 synthase activity analysis of sheep prostaglandin H2 synthases form 1 and 2 obtained from ram seminal vesicle and placenta, respectively, were carried out as previously described (21) with or without pretreatment with peroxynitrite. Briefly, purified or partly purified sheep prostaglandin H2 synthases form 1 (9 units) and form 2 (12 units) were pretreated with or without peroxynitrite at 37° C. for 30 minutes. [^14C]arachidonic acid (AA) (25 μM) (NEN, specific activity 53 mCi/mmol) was added to the prostaglandin H2 synthase form 1 or form 2 in 0.2 ml of PBS, and incubated at 37° C. for 10 minutes. Prostaglandin H2 synthase metabolites in the medium were extracted with ethyl acetate, dried down in a centrifugal evaporator, spotted on a silica TLC plate and separated using A-9 solvent (ethyl acetate:trimethylpentane:acetic acid:water, 55:25:10:50). The TLC assay measured products resulting from both the cyclooxygenase and peroxidase activities of prostaglandin H2 synthase. The immediate product of the prostaglandin H2 synthase reaction, prostaglandin H2, was unstable and broke down in a non-enzymatic fashion to a variety of prostaglandins which were detectable by TLC. The Rf pattern in the A-9 solvent system of the break down products of prostaglandin H2 produced by ram seminal vesicle prostaglandin H2 synthase form 1 was well characterized. […]

[5] = biological target: T1, prostaglandin H2 synthase form 2; test: as above; format: biochemical, sheep; settings: pretreated at 37° C. for 30 minutes; 25 μM [14C]arachidonic acid
Experimental: as §2

cytochrome c [6] = test: Nitration and polymerization of cytochrome c, SDS-PAGE and anti-nitrotyrosine Western blot; format: biochemical
Experimental: as §1
Cytochrome c (40 μg) was incubated with 0.5 mM (FIG. 1, Panel A, lane 1) […] deactivated (a negative control, FIG. 1, Panel A, lane 2) peroxynitrite in 100 mM phosphate buffer, pH 7.4. Deactivated peroxynitrite was produced by incubation of 0.5 mM peroxynitrite in buffer for 5 minutes prior to addition to the reaction mixture. […]
Cytochrome c (40 μg) was incubated with increasing concentrations (0.032 to 0.13 mM) (FIG. 1, Panel B) of peroxynitrite in 100 mM phosphate buffer, pH 7.4. […] The cytochrome c monomer band (14 kDa) shown in Western blot analysis in FIG. 1, Panel B and those obtained from two other experiments were quantitated using Molecular Dynamics Personal Densitometer (FIG. 1, Panel C).

## NCCN(CCN)/[N+]([O-])=N/O [DETA NONOate, diethylenetetraamine (DETA) NONOate]
Cytochrome c [1]
  nitration and polymerization of cytochrome c: nitrated and polymerized

## N[C@@H](CCC(=O)N[C@@H](CS)C(=O)NCC(=O)O)C(=O)O [glutathione]
[2]
  nitration of tyrosine residues of prostaglandin H2 synthase form 2 in the presence of reducing agent: inhibited
[2]; listed as GSH
  nitration of tyrosine residues of prostaglandin H2 synthase form 2 in the presence of reducing agent: not nitrated
[3]; 31 μM GSH, no β-mercaptoethanol in loading buffer
  dimerization of prostaglandin H2 synthase form 2 in the presence of reducing agent: ran as a monomer

## O=NOO [peroxynitrite]
[2]; 450 μM peroxynitrite, no GSH
  nitration of tyrosine residues of prostaglandin H2 synthase form 2 by oxidant: increased
[3]; no GSH, no β-mercaptoethanol
  dimerization of prostaglandin H2 synthase form 2 by oxidant: migrated both as a monomer (70 kDa) and a dimer (140 kDa)
[4]
  catalytic activity of prostaglandin H2 synthase form 1 after treatment: abolished
[5]
  catalytic activity of prostaglandin H2 synthase form 2 after treatment: abolished
Cytochrome c [6]; 0.5 mM peroxynitrite, 100 mM phosphate buffer, pH 7.4
  nitration and polymerization of cytochrome c: nitrated and polymerized to 30 kDa, 45 kDa and higher molecular mass
Cytochrome c [6]; 0.032 to 0.13 mM peroxynitrite
  concentration dependence of nitration and polymerization of cytochrome c: nitrated and polymerized in a dose-dependent manner
